# Test results: US20230263768A1, “WATER-SOLUBLE ARTESUNATE-BASED THERAPY FOR CORONAVIRUS INFECTION” (priority 2020, published 2023)
# Columns and labels:
# [1] = Solubility of artesunate formulations in simulated gastric fluid; type: physicochemical; conditions: 0.5 g in 10 mL SGF pH 1.2, 36.5° C., 100 rev/min, after 30 minutes
# Description: An amount of 0.5 g of different artesunate formulations (untreated artesunate, sodium Artesunate, Artesunate/SG complex and WSA powders) are dispersed in 10 mL of simulated gastric fluid (SGF, pH 1.2). All solutions are incubated at 36.5° C. under mild shaking with (100 rev/min) in a G24 Environmental Incubator Shaker (New Brunswick Scientific Co., NJ, USA).
# [2] = system: SARS-CoV-2 (isolate USA-WA1-2020); assay: SARS-CoV-2 replication in VERO E6 cells, viral RNA by qPCR (Ct) after 48 h; type: cell-based
# [3] = Example 4, 160 µg/mL, 48 h, VERO E6
SMILES,appearance of the solution / precipitation in SGF [1],"Cycle Threshold Value (quantity of viral RNA) [2, 3]","antiviral activity (in words) [2, 3]","Cycle Threshold Value (quantity of viral RNA) ([2]; Example 4, 160 µg/mL, 48 h, VERO E6, listed as sodium artesunate)","antiviral activity (in words) ([2]; Example 6, dose response and combination with Telmisartan)"
C[C@H]1[C@H](OC(=O)CCC(=O)[O-])O[C@@H]2O[C@@]3(C)CC[C@H]4[C@H](C)CC[C@@H]1[C@@]24OO3.[Na+] [Sodium Artesunate],"cloudy, but no evident precipitation is observed",22.5,Low antiviral activity,about 23,–
CCCc1nc2c(C)cc(-c3nc4ccccc4n3C)cc2n1Cc1ccc(-c2ccccc2C(=O)O)cc1 [Telmisartan],–,–,–,–,No activity antiviral is observed
"C[C@@H]1CCC2[C@@H](C)[C@H](OC(=O)CCC(=O)O)OC3O[C@]4(C)CCC1[C@]32OO4 (stereo partly drawn) [untreated Artesunate, Artesunate]","milky appearance, with an important precipitation at the bottom of vial",–,–,–,–
